For the first assay, the target named is T1, SimG AT domain (LD-AT) (Tolypocladium inflatum, UniProt Z9QNP6F7M4).
T1 construct: excised AT domain with flanking linker domain (LD), active-site Ser706; recombinant; borders only in ESI
T1 sequence (Z9QNP6F7M4 1-440): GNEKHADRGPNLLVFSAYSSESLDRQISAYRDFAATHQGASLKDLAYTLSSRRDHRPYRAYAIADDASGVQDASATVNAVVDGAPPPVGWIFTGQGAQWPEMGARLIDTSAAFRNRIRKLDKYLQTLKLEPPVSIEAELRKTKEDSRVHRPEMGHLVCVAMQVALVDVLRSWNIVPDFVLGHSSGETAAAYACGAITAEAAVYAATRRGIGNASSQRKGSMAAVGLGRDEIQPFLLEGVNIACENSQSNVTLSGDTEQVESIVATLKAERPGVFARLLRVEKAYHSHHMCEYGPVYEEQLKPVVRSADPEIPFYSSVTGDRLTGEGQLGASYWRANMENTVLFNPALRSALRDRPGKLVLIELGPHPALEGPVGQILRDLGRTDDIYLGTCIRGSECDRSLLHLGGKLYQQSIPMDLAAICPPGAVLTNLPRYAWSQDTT
Briefly: intact protein MS, acyl-enzyme formation. Format: biochemical. As to conditions: covalent; active site Ser706.
In the case of `CCCC(=O)SCCNC(=O)CCNC(=O)[C@H](O)C(C)(C)COP(=O)(O)OP(=O)(O)OC[C@H]1O[C@@H](n2cnc3c(N)ncnc32)[C@H](O)[C@@H]1OP(=O)(O)O` [butyryl-CoA], the “% acylation of AT domain” value was “good levels of AT transacylation were observed for C3–C10 substrates”. Same read-out and setting: then `CCCCCCCCCC(=O)SCCNC(=O)CCNC(=O)[C@H](O)C(C)(C)COP(=O)(O)OP(=O)(O)OC[C@H]1O[C@@H](n2cnc3c(N)ncnc32)[C@H](O)[C@@H]1OP(=O)(O)O` [decanoyl-CoA], with “good levels of AT transacylation were observed for C3–C10 substrates”.

Turning to `CCCCCC(=O)SCCNC(=O)CCNC(=O)[C@H](O)C(C)(C)COP(=O)(O)OP(=O)(O)OC[C@H]1O[C@@H](n2cnc3c(N)ncnc32)[C@H](O)[C@@H]1OP(=O)(O)O` [hexanoyl-CoA], the “% acylation of AT domain” value is “good levels of AT transacylation were observed for C3–C10 substrates”.

As to `CC(C(=O)O)C(=O)SCCNC(=O)CCNC(=O)[C@H](O)C(C)(C)COP(=O)(O)OP(=O)(O)OC[C@H]1O[C@@H](n2cnc3c(N)ncnc32)[C@H](O)[C@@H]1OP(=O)(O)O` (some centres unmarked) [methylmalonyl-CoA], the “% acylation of AT domain” value was “methylmalonyl-CoA was able to acylate the AT domain”. Regarding `CCCCCCCC(=O)SCCNC(=O)CCNC(=O)[C@H](O)C(C)(C)COP(=O)(O)OP(=O)(O)OC[C@H]1O[C@@H](n2cnc3c(N)ncnc32)[C@H](O)[C@@H]1OP(=O)(O)O` [octanoyl-CoA], the “% acylation of AT domain” value is “good levels of AT transacylation were observed for C3–C10 substrates”. With `CCC(=O)SCCNC(=O)CCNC(=O)[C@H](O)C(C)(C)COP(=O)(O)OP(=O)(O)OC[C@H]1O[C@@H](n2cnc3c(N)ncnc32)[C@H](O)[C@@H]1OP(=O)(O)O` [propionyl-CoA], the “% acylation of AT domain” value is listed as “good levels of AT transacylation were observed for C3–C10 substrates”.

A further assay deals with T1, SimG AT domain (LD-AT). Briefly: intact protein MS, acyl-enzyme formation. The format is biochemical. As to conditions: covalent; active site Ser706; excess acyl-CoA; no ACP.
Regarding `CC(=O)SCCNC(=O)CCNC(=O)[C@H](O)C(C)(C)COP(=O)(O)OP(=O)(O)OC[C@H]1O[C@@H](n2cnc3c(N)ncnc32)[C@H](O)[C@@H]1OP(=O)(O)O` [acetyl-CoA], the “% loading of AT domain” value is recorded as 35.3 ± 0.9%. Still for that read-out and setting: the figure for `CC(C)(COP(=O)(O)OP(=O)(O)OC[C@H]1O[C@@H](n2cnc3c(N)ncnc32)[C@H](O)[C@@H]1OP(=O)(O)O)[C@@H](O)C(=O)NCCC(=O)NCCSC(=O)CC(=O)O` [malonyl-CoA] is 64.5 ± 1.4%.

For the origin of these results see PMC12199272, “Biochemical dissection of a fungal highly reducing polyketide synthase condensing region reveals basis for acyl group selection” (Chemical Science, 2025).
